Measured values taken from ChEMBL document CHEMBL4364276, “Discovery of 4-phenyl-2H-benzo[b][1,4]oxazin-3(4H)-one derivatives as potent and orally active PI3K/mTOR dual inhibitors” (Eur J Med Chem, 2019).

These molecules were tested against PI3-kinase p110-delta/p85-alpha (Homo sapiens, UniProt O00329) (assay: Inhibition of recombinant human full length N-terminal GST-tagged PI3Kdelta (1 to 1044 residues)/PIK3R1 (1 to 724 residues) expressed in baculovirus expression system using PIP2 as substrate incubated for 2 hrs by ADP-Glo assay). Conditions: not given.
Sequence of PI3-kinase p110-delta/p85-alpha (P27986 whole entry, the tested form may be a part): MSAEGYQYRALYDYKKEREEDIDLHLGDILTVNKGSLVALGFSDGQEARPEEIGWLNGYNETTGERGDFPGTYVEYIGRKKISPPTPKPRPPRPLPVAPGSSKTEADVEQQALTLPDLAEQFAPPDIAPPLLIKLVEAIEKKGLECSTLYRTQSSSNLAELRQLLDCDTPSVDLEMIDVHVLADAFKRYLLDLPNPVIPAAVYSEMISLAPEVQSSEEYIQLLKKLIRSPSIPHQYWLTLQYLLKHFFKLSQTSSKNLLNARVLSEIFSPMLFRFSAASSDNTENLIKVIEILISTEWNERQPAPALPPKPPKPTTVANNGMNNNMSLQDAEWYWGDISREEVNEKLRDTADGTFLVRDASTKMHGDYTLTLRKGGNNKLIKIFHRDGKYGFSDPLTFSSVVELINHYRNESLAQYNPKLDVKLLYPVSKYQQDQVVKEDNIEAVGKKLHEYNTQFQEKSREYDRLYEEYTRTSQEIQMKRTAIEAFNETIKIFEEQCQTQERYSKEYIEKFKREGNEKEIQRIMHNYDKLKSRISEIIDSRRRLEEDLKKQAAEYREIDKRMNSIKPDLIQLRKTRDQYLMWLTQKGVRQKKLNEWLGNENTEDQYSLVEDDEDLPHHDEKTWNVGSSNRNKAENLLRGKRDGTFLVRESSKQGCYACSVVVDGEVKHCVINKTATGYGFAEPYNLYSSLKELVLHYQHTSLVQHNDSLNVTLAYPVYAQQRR
Sequence of PI3-kinase p110-delta/p85-alpha (O00329 whole entry, the tested form may be a part): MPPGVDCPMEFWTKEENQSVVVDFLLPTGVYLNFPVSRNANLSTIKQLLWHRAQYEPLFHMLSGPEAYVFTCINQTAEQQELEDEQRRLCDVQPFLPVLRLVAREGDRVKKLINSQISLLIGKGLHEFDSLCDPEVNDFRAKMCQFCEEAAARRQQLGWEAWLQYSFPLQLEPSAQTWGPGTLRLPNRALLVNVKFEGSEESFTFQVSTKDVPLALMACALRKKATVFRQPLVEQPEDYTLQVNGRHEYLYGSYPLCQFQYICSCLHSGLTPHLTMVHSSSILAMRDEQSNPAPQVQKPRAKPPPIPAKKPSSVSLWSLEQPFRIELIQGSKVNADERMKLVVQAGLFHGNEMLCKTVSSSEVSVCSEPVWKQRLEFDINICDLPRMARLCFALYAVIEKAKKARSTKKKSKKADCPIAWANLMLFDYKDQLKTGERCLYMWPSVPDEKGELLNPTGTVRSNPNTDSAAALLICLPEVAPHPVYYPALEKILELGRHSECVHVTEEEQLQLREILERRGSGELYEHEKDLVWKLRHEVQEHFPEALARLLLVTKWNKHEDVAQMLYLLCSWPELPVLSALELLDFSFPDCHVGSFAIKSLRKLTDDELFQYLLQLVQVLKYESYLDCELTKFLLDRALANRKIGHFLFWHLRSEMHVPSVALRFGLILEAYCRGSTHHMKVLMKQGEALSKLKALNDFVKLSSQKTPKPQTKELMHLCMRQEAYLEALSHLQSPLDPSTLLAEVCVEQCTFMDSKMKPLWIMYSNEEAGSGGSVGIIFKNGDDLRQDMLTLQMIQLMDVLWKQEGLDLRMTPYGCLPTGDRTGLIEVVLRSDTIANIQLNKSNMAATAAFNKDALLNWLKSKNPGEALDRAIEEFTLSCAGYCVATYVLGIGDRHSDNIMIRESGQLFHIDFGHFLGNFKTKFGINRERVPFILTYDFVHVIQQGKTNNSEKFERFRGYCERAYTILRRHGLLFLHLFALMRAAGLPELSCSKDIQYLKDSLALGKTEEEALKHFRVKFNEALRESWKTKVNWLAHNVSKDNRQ

| SMILES | IC50 [µM] |
| --- | --- |
| COc1cccc(N2C(=O)COc3ccc(-c4cnc5ccccc5c4)cc32)c1 | > 1 |
| O=C1COc2ccc(-c3cnc(Cl)c(NS(=O)(=O)c4ccc(F)cc4)c3)cc2N1c1ccc(Cl)cc1 | 0.0032 |
| COc1cccc(N2C(=O)COc3ccc(-c4cnc(Cl)c(NS(=O)(=O)c5ccc(F)cc5)c4)cc32)c1 | > 1 |
| O=C1COc2ccc(-c3cnc4ccccc4c3)cc2N1c1ccc(F)cc1 | > 1 |
| O=C1COc2ccc(-c3cnc(Cl)c(NS(=O)(=O)c4ccc(F)cc4)c3)cc2N1c1ccccc1 | 0.015 |
| O=C1COc2ccc(-c3cnc4ccccc4c3)cc2N1c1ccccc1 | > 1 |
| COc1ncc(-c2ccc3c(c2)N(c2ccccc2)C(=O)CO3)cc1NS(=O)(=O)c1ccc(F)cc1 | 0.08 |
| Cc1ccc(N2C(=O)COc3ccc(-c4cnc5ccccc5c4)cc32)cc1 | > 1 |
| COc1ncc(-c2ccc3c(c2)N(C(C)C)C(=O)CO3)cc1NS(=O)(=O)c1ccc(F)cc1 | 0.018 |
| COc1ccc(N2C(=O)COc3ccc(-c4cnc(Cl)c(NS(=O)(=O)c5ccc(F)cc5)c4)cc32)cc1 | 0.0038 |
| O=C1COc2ccc(-c3ccc(O)cc3)cc2N1C1CC1 | > 1 |

These molecules were tested on A-375 (assay: Antiproliferative activity against human A375 cells assessed as reduction in cell viability incubated for 72 hrs by MTT assay). Conditions: A-375, 72 h.
Assay type: functional, cell-based

| SMILES | IC50 [µM] |
| --- | --- |
| COc1cccc(N2C(=O)COc3ccc(-c4cnc5ccccc5c4)cc32)c1 | 23.6 |
| O=C1COc2ccc(-c3cnc(Cl)c(NS(=O)(=O)c4ccc(F)cc4)c3)cc2N1c1ccc(Cl)cc1 | 30.6 |
| COc1cccc(N2C(=O)COc3ccc(-c4cnc(Cl)c(NS(=O)(=O)c5ccc(F)cc5)c4)cc32)c1 | > 40 |
| O=C1COc2ccc(-c3cnc4ccccc4c3)cc2N1c1ccc(F)cc1 | > 40 |
| O=C1COc2ccc(-c3cnc(Cl)c(NS(=O)(=O)c4ccc(F)cc4)c3)cc2N1c1ccccc1 | 36.9 |
| O=C1COc2ccc(-c3cnc4ccccc4c3)cc2N1c1ccccc1 | > 40 |
| COc1ncc(-c2ccc3c(c2)N(c2ccccc2)C(=O)CO3)cc1NS(=O)(=O)c1ccc(F)cc1 | 15.2 |
| Cc1ccc(N2C(=O)COc3ccc(-c4cnc5ccccc5c4)cc32)cc1 | > 40 |
| COc1ncc(-c2ccc3c(c2)N(C(C)C)C(=O)CO3)cc1NS(=O)(=O)c1ccc(F)cc1 | 9.95 |
| COc1ccc(N2C(=O)COc3ccc(-c4cnc(Cl)c(NS(=O)(=O)c5ccc(F)cc5)c4)cc32)cc1 | 32.7 |
| O=C1COc2ccc(-c3ccc(O)cc3)cc2N1C1CC1 | > 40 |

Each molecule was assayed against Phosphatidylinositol 4,5-bisphosphate 3-kinase catalytic subunit alpha isoform (Homo sapiens, UniProt P42336) (assay: Inhibition of recombinant human full length N-terminal GST-tagged PI3Kalpha (1 to 1068 residues)/PIK3R1 (1 to 724 residues) expressed in baculovirus expression system using PIP2 as substrate incubated for 1 hr by ADP-Glo assay). Conditions: not given.
Sequence of Phosphatidylinositol 4,5-bisphosphate 3-kinase catalytic subunit alpha isoform (P42336 whole entry, looked up, the tested form may be a part, canonical isoform): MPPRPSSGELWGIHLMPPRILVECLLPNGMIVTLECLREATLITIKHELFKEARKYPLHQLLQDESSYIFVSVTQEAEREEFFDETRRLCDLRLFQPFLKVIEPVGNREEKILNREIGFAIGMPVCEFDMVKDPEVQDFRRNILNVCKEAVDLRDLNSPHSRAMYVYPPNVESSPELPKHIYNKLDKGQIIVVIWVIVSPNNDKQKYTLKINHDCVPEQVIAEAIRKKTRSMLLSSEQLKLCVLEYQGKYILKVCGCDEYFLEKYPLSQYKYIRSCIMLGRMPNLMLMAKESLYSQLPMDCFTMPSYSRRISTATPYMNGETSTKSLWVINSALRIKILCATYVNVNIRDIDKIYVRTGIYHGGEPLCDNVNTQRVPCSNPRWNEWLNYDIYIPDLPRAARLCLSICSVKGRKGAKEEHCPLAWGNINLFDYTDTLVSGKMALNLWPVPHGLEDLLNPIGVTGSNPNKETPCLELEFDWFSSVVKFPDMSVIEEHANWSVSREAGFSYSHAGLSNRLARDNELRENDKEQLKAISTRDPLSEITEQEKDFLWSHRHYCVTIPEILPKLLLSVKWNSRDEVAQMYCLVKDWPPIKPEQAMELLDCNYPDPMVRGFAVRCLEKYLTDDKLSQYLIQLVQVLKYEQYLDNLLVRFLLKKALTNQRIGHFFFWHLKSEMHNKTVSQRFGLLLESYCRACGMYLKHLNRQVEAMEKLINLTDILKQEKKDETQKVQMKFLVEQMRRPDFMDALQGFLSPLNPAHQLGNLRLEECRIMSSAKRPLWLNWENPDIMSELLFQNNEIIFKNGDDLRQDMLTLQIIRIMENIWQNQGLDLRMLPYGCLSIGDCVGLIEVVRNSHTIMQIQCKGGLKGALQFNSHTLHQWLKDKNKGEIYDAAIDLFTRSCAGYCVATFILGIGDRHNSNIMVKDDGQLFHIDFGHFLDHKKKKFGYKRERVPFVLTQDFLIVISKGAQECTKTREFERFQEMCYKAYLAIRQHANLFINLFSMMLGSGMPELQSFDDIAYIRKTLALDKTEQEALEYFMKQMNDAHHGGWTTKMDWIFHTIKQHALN

| SMILES | IC50 [µM] |
| --- | --- |
| COc1cccc(N2C(=O)COc3ccc(-c4cnc5ccccc5c4)cc32)c1 | > 1 |
| O=C1COc2ccc(-c3cnc(Cl)c(NS(=O)(=O)c4ccc(F)cc4)c3)cc2N1c1ccc(Cl)cc1 | 0.002 |
| COc1cccc(N2C(=O)COc3ccc(-c4cnc(Cl)c(NS(=O)(=O)c5ccc(F)cc5)c4)cc32)c1 | > 1 |
| O=C1COc2ccc(-c3cnc4ccccc4c3)cc2N1c1ccc(F)cc1 | > 1 |
| O=C1COc2ccc(-c3cnc(Cl)c(NS(=O)(=O)c4ccc(F)cc4)c3)cc2N1c1ccccc1 | 0.019 |
| O=C1COc2ccc(-c3cnc4ccccc4c3)cc2N1c1ccccc1 | > 1 |
| COc1ncc(-c2ccc3c(c2)N(c2ccccc2)C(=O)CO3)cc1NS(=O)(=O)c1ccc(F)cc1 | 0.102 |
| Cc1ccc(N2C(=O)COc3ccc(-c4cnc5ccccc5c4)cc32)cc1 | > 1 |
| COc1ncc(-c2ccc3c(c2)N(C(C)C)C(=O)CO3)cc1NS(=O)(=O)c1ccc(F)cc1 | 0.0453 |
| COc1ccc(N2C(=O)COc3ccc(-c4cnc(Cl)c(NS(=O)(=O)c5ccc(F)cc5)c4)cc32)cc1 | 0.00043 |
| O=C1COc2ccc(-c3ccc(O)cc3)cc2N1C1CC1 | > 1 |

The molecules below were run against Serine/threonine-protein kinase mTOR (Homo sapiens, UniProt P42345) (assay: Inhibition of recombinant human N-terminal FLAG-tagged mTOR (1362 to end residues) using Ulight-4E-BP1 as substrate incubated for 30 mins by fluorescence assay). Conditions: not given.

| SMILES | IC50 [µM] |
| --- | --- |
| COc1cccc(N2C(=O)COc3ccc(-c4cnc5ccccc5c4)cc32)c1 | > 1 |
| O=C1COc2ccc(-c3cnc(Cl)c(NS(=O)(=O)c4ccc(F)cc4)c3)cc2N1c1ccc(Cl)cc1 | 0.0141 |
| COc1cccc(N2C(=O)COc3ccc(-c4cnc(Cl)c(NS(=O)(=O)c5ccc(F)cc5)c4)cc32)c1 | > 1 |
| O=C1COc2ccc(-c3cnc4ccccc4c3)cc2N1c1ccc(F)cc1 | > 1 |
| O=C1COc2ccc(-c3cnc(Cl)c(NS(=O)(=O)c4ccc(F)cc4)c3)cc2N1c1ccccc1 | 0.0153 |
| O=C1COc2ccc(-c3cnc4ccccc4c3)cc2N1c1ccccc1 | > 1 |
| COc1ncc(-c2ccc3c(c2)N(c2ccccc2)C(=O)CO3)cc1NS(=O)(=O)c1ccc(F)cc1 | 0.0486 |
| Cc1ccc(N2C(=O)COc3ccc(-c4cnc5ccccc5c4)cc32)cc1 | > 1 |
| COc1ncc(-c2ccc3c(c2)N(C(C)C)C(=O)CO3)cc1NS(=O)(=O)c1ccc(F)cc1 | 0.0036 |
| COc1ccc(N2C(=O)COc3ccc(-c4cnc(Cl)c(NS(=O)(=O)c5ccc(F)cc5)c4)cc32)cc1 | 0.0198 |
| O=C1COc2ccc(-c3ccc(O)cc3)cc2N1C1CC1 | > 1 |

These molecules were tested on HCT-116 (assay: Antiproliferative activity against human HCT116 cells assessed as reduction in cell viability incubated for 72 hrs by MTT assay). Conditions: HCT-116, 72 h.
Assay type: functional, cell-based

| SMILES | IC50 [µM] |
| --- | --- |
| COc1cccc(N2C(=O)COc3ccc(-c4cnc5ccccc5c4)cc32)c1 | 8.24 |
| O=C1COc2ccc(-c3cnc(Cl)c(NS(=O)(=O)c4ccc(F)cc4)c3)cc2N1c1ccc(Cl)cc1 | 27.9 |
| COc1cccc(N2C(=O)COc3ccc(-c4cnc(Cl)c(NS(=O)(=O)c5ccc(F)cc5)c4)cc32)c1 | > 40 |
| O=C1COc2ccc(-c3cnc4ccccc4c3)cc2N1c1ccc(F)cc1 | > 40 |
| O=C1COc2ccc(-c3cnc(Cl)c(NS(=O)(=O)c4ccc(F)cc4)c3)cc2N1c1ccccc1 | 39.8 |
| O=C1COc2ccc(-c3cnc4ccccc4c3)cc2N1c1ccccc1 | > 40 |
| COc1ncc(-c2ccc3c(c2)N(c2ccccc2)C(=O)CO3)cc1NS(=O)(=O)c1ccc(F)cc1 | 18.8 |
| Cc1ccc(N2C(=O)COc3ccc(-c4cnc5ccccc5c4)cc32)cc1 | > 40 |
| COc1ncc(-c2ccc3c(c2)N(C(C)C)C(=O)CO3)cc1NS(=O)(=O)c1ccc(F)cc1 | 19.2 |
| COc1ccc(N2C(=O)COc3ccc(-c4cnc(Cl)c(NS(=O)(=O)c5ccc(F)cc5)c4)cc32)cc1 | 30.1 |
| O=C1COc2ccc(-c3ccc(O)cc3)cc2N1C1CC1 | > 40 |

The molecules below were run on HepG2 (assay: cells). Conditions: Homo sapiens, HepG2, 72 h.

| SMILES | IC50 [µM] |
| --- | --- |
| COc1cccc(N2C(=O)COc3ccc(-c4cnc5ccccc5c4)cc32)c1 | 2.08 |
| O=C1COc2ccc(-c3cnc(Cl)c(NS(=O)(=O)c4ccc(F)cc4)c3)cc2N1c1ccc(Cl)cc1 | 33.9 |
| COc1cccc(N2C(=O)COc3ccc(-c4cnc(Cl)c(NS(=O)(=O)c5ccc(F)cc5)c4)cc32)c1 | > 40 |
| O=C1COc2ccc(-c3cnc4ccccc4c3)cc2N1c1ccc(F)cc1 | 37.2 |
| O=C1COc2ccc(-c3cnc(Cl)c(NS(=O)(=O)c4ccc(F)cc4)c3)cc2N1c1ccccc1 | 35.7 |
| O=C1COc2ccc(-c3cnc4ccccc4c3)cc2N1c1ccccc1 | > 40 |
| COc1ncc(-c2ccc3c(c2)N(c2ccccc2)C(=O)CO3)cc1NS(=O)(=O)c1ccc(F)cc1 | 14 |
| Cc1ccc(N2C(=O)COc3ccc(-c4cnc5ccccc5c4)cc32)cc1 | > 40 |
| COc1ncc(-c2ccc3c(c2)N(C(C)C)C(=O)CO3)cc1NS(=O)(=O)c1ccc(F)cc1 | 37.2 |
| COc1ccc(N2C(=O)COc3ccc(-c4cnc(Cl)c(NS(=O)(=O)c5ccc(F)cc5)c4)cc32)cc1 | > 40 |
| O=C1COc2ccc(-c3ccc(O)cc3)cc2N1C1CC1 | 32.7 |

Each molecule was assayed on A549 (assay: cells). Conditions: Homo sapiens, A549, 72 h.

| SMILES | IC50 [µM] |
| --- | --- |
| COc1cccc(N2C(=O)COc3ccc(-c4cnc5ccccc5c4)cc32)c1 | > 40 |
| O=C1COc2ccc(-c3cnc(Cl)c(NS(=O)(=O)c4ccc(F)cc4)c3)cc2N1c1ccc(Cl)cc1 | 21.6 |
| COc1cccc(N2C(=O)COc3ccc(-c4cnc(Cl)c(NS(=O)(=O)c5ccc(F)cc5)c4)cc32)c1 | 32.6 |
| O=C1COc2ccc(-c3cnc4ccccc4c3)cc2N1c1ccc(F)cc1 | > 40 |
| O=C1COc2ccc(-c3cnc(Cl)c(NS(=O)(=O)c4ccc(F)cc4)c3)cc2N1c1ccccc1 | 14.7 |
| O=C1COc2ccc(-c3cnc4ccccc4c3)cc2N1c1ccccc1 | > 40 |
| COc1ncc(-c2ccc3c(c2)N(c2ccccc2)C(=O)CO3)cc1NS(=O)(=O)c1ccc(F)cc1 | 3.49 |
| Cc1ccc(N2C(=O)COc3ccc(-c4cnc5ccccc5c4)cc32)cc1 | > 40 |
| COc1ncc(-c2ccc3c(c2)N(C(C)C)C(=O)CO3)cc1NS(=O)(=O)c1ccc(F)cc1 | 4.92 |
| COc1ccc(N2C(=O)COc3ccc(-c4cnc(Cl)c(NS(=O)(=O)c5ccc(F)cc5)c4)cc32)cc1 | 30.4 |
| O=C1COc2ccc(-c3ccc(O)cc3)cc2N1C1CC1 | > 40 |

These molecules were tested on MCF7 (assay: cells). Conditions: Homo sapiens, MCF7, 72 h.

| SMILES | IC50 [µM] |
| --- | --- |
| COc1cccc(N2C(=O)COc3ccc(-c4cnc5ccccc5c4)cc32)c1 | > 40 |
| O=C1COc2ccc(-c3cnc(Cl)c(NS(=O)(=O)c4ccc(F)cc4)c3)cc2N1c1ccc(Cl)cc1 | 32.8 |
| COc1cccc(N2C(=O)COc3ccc(-c4cnc(Cl)c(NS(=O)(=O)c5ccc(F)cc5)c4)cc32)c1 | > 40 |
| O=C1COc2ccc(-c3cnc4ccccc4c3)cc2N1c1ccc(F)cc1 | > 40 |
| O=C1COc2ccc(-c3cnc(Cl)c(NS(=O)(=O)c4ccc(F)cc4)c3)cc2N1c1ccccc1 | > 40 |
| O=C1COc2ccc(-c3cnc4ccccc4c3)cc2N1c1ccccc1 | > 40 |
| COc1ncc(-c2ccc3c(c2)N(c2ccccc2)C(=O)CO3)cc1NS(=O)(=O)c1ccc(F)cc1 | 8.87 |
| Cc1ccc(N2C(=O)COc3ccc(-c4cnc5ccccc5c4)cc32)cc1 | > 40 |
| COc1ncc(-c2ccc3c(c2)N(C(C)C)C(=O)CO3)cc1NS(=O)(=O)c1ccc(F)cc1 | 16.9 |
| COc1ccc(N2C(=O)COc3ccc(-c4cnc(Cl)c(NS(=O)(=O)c5ccc(F)cc5)c4)cc32)cc1 | 36 |
| O=C1COc2ccc(-c3ccc(O)cc3)cc2N1C1CC1 | 33 |

What follows are molecules tested on HeLa (assay: Antiproliferative activity against human HeLa cells assessed as reduction in cell viability incubated for 72 hrs by MTT assay). Conditions: not given.
Assay type: functional, cell-based

| SMILES | IC50 [µM] |
| --- | --- |
| COc1cccc(N2C(=O)COc3ccc(-c4cnc5ccccc5c4)cc32)c1 | 11.3 |
| O=C1COc2ccc(-c3cnc(Cl)c(NS(=O)(=O)c4ccc(F)cc4)c3)cc2N1c1ccc(Cl)cc1 | > 40 |
| COc1cccc(N2C(=O)COc3ccc(-c4cnc(Cl)c(NS(=O)(=O)c5ccc(F)cc5)c4)cc32)c1 | > 40 |
| O=C1COc2ccc(-c3cnc4ccccc4c3)cc2N1c1ccc(F)cc1 | 38.8 |
| O=C1COc2ccc(-c3cnc(Cl)c(NS(=O)(=O)c4ccc(F)cc4)c3)cc2N1c1ccccc1 | 10.3 |
| O=C1COc2ccc(-c3cnc4ccccc4c3)cc2N1c1ccccc1 | > 40 |
| COc1ncc(-c2ccc3c(c2)N(c2ccccc2)C(=O)CO3)cc1NS(=O)(=O)c1ccc(F)cc1 | 1.53 |
| Cc1ccc(N2C(=O)COc3ccc(-c4cnc5ccccc5c4)cc32)cc1 | > 40 |
| COc1ncc(-c2ccc3c(c2)N(C(C)C)C(=O)CO3)cc1NS(=O)(=O)c1ccc(F)cc1 | 2.79 |
| COc1ccc(N2C(=O)COc3ccc(-c4cnc(Cl)c(NS(=O)(=O)c5ccc(F)cc5)c4)cc32)cc1 | 8.32 |
| O=C1COc2ccc(-c3ccc(O)cc3)cc2N1C1CC1 | > 40 |
